Experimental data from ChEMBL document CHEMBL1157348, “The alkaloid conessine and analogues as potent histamine H3 receptor antagonists” (J Med Chem, 2008).

What was measured:
Histamine H3 receptor [1] = molecular target: T1, Histamine H3 receptor (Homo sapiens, UniProt Q9Y5N1); assay: Displacement of [3H]NAMH from human full length histamine H3 receptor expressed in rat C6 cells; assay type: cell-based
Histamine H3 receptor [2] = molecular target: T2, Histamine H3 receptor (Rattus norvegicus, UniProt Q9QYN8); assay: Displacement of [3H]NAMH from histamine H3 receptor in rat cortex
T2 sequence (Q9QYN8 whole entry): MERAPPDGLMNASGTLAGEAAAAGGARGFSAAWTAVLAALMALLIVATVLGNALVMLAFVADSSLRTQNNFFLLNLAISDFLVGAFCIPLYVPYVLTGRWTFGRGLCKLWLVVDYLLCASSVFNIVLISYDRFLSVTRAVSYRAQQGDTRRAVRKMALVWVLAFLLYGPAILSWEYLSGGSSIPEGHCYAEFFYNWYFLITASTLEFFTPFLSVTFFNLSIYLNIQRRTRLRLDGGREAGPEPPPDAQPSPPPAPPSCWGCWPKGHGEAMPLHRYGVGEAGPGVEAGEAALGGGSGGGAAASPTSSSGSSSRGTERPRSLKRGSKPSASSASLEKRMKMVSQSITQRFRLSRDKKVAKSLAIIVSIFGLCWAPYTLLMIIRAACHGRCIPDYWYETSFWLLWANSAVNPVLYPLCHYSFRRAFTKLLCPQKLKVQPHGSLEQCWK

Histamine H3 receptor [3] = molecular target: Histamine H3 receptor (Cavia porcellus, UniProt Q9JI35); assay: Antagonist activity at histamine H3 receptor in guinea pig ileum assessed as inhibition of (R)-alpha-methylhistamine-induced response
Chain of Histamine H3 receptor (Cavia porcellus, UniProt Q9JI35) (Q9JI35 whole entry): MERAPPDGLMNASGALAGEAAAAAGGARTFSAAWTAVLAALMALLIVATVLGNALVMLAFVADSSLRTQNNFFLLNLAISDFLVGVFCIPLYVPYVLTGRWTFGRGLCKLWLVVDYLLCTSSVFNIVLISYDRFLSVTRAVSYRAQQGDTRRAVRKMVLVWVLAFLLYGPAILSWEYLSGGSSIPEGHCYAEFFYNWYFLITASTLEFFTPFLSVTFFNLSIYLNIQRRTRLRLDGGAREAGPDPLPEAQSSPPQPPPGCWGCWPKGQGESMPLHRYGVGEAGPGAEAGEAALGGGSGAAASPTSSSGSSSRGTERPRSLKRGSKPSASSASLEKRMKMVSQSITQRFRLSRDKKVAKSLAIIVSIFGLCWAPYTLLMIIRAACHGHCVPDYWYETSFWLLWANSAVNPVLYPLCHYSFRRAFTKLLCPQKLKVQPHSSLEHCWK

[4] = Plasma concentration in rat at 1 mg/kg, ip after 24 hrs; assay type: ADME, organism-based; set-up: dose 1 mg/kg, route intraperitoneal
[5] = Ratio of drug level in brain to plasma at 1 mg/kg, ip after 24 hrs; assay type: ADME, organism-based; set-up: dose 1 mg/kg, route intraperitoneal; conditions: rat
[6] = Drug level in rat blood at 1 mg/kg, ip after 5 hrs; assay type: ADME, organism-based; set-up: dose 1 mg/kg, route intraperitoneal; conditions: read-out: Drug uptake
[7] = Drug level in rat brain at 1 mg/kg, ip after 1 hr; assay type: ADME, organism-based; set-up: dose 1 mg/kg, route intraperitoneal; conditions: read-out: Drug uptake
Histamine H3 receptor [8] = molecular target: T1, Histamine H3 receptor; assay: Antagonist activity at human full length histamine H3 receptor expressed in HEK293 cells assessed as inhibition of (R)-alpha-methylhistamine-induced intracellular calcium release by FLIPR; assay type: functional, cell-based
[9] = Plasma concentration in rat at 1 mg/kg, ip after 1 hr; assay type: ADME, organism-based; set-up: dose 1 mg/kg, route intraperitoneal
[10] = Drug level in rat brain at 1 mg/kg, ip after 5 hrs; assay type: ADME, organism-based; set-up: dose 1 mg/kg, route intraperitoneal; conditions: read-out: Drug uptake
Histamine H4 receptor = Histamine H4 receptor (Homo sapiens, UniProt Q9H3N8); assay: Displacement of [3H]histamine from human histamine H4 receptor expressed in HEK cells; assay type: cell-based, HEK293; conditions: read-out: pKi (converted)
Chain of Histamine H4 receptor (Q9H3N8 whole entry): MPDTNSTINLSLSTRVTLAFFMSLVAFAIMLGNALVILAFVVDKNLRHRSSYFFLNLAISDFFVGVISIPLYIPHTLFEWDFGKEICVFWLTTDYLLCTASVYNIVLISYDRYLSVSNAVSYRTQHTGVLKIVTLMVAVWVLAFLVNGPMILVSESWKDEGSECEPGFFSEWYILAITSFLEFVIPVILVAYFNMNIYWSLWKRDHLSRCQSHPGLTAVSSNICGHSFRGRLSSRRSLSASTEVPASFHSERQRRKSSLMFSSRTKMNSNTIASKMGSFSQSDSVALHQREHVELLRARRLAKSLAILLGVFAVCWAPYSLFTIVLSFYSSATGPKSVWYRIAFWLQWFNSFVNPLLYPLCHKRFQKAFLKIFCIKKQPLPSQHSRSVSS

Histamine H1 receptor = Histamine H1 receptor (Homo sapiens, UniProt P35367); assay: Displacement of [3H]mepyramine from human histamine H1 receptor; conditions: read-out: pKi (converted)
Chain of Histamine H1 receptor (P35367 whole entry): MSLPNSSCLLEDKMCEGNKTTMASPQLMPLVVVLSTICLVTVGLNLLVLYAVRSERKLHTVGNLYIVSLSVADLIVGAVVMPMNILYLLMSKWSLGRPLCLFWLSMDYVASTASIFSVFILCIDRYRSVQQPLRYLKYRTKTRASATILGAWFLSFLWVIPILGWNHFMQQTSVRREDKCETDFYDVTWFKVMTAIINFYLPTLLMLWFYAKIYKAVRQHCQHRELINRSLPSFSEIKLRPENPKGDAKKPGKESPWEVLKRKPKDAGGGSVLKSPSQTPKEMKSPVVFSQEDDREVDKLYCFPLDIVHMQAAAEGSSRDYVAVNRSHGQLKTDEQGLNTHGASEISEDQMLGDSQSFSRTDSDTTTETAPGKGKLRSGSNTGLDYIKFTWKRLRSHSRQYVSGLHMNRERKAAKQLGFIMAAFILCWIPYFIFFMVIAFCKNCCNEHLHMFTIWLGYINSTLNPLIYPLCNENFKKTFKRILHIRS

[11] = Ratio of drug level in brain to plasma at 1 mg/kg, ip after 1 hr; assay type: ADME, organism-based; set-up: dose 1 mg/kg, route intraperitoneal; conditions: rat
Histamine H3 receptor [12] = molecular target: T2, Histamine H3 receptor; assay: Displacement of [3H]NAMH from rat full length histamine H3 receptor expressed in rat C6 cells; assay type: cell-based
[13] = molecular target: Histamine H3 receptor (Rattus norvegicus) (UniProt Q9QYN8); assay: Antagonist activity at rat full length histamine H3 receptor expressed in HEK cells assessed as inhibition of forskolin-induced cAMP accumulation by SPA; conditions: HEK293
Chain of Histamine H3 receptor (Rattus norvegicus) (Q9QYN8 whole entry): as the sequence (Q9QYN8 whole entry) above

[14] = Drug level in rat brain at 1 mg/kg, ip after 24 hrs; assay type: ADME, organism-based; set-up: dose 1 mg/kg, route intraperitoneal; conditions: read-out: Drug uptake
[15] = Displacement of [3H]LY278584 from 5HT1 receptor in rat frontal cortex; assay type: tissue-based
[16] = Selectivity ratio for human adrenergic alpha 2C4 receptor over human H3 receptor
Histamine H3 receptor [17] = molecular target: T1, Histamine H3 receptor; conditions: HEK293
[18] = molecular target: T3, Alpha-2A adrenergic receptor (Homo sapiens, UniProt P08913); assay: Displacement of [3H]rauwolscine from human adrenergic alpha 2C10 receptor expressed in mouse LTK- cells; assay type: cell-based
T3 sequence (P08913 whole entry): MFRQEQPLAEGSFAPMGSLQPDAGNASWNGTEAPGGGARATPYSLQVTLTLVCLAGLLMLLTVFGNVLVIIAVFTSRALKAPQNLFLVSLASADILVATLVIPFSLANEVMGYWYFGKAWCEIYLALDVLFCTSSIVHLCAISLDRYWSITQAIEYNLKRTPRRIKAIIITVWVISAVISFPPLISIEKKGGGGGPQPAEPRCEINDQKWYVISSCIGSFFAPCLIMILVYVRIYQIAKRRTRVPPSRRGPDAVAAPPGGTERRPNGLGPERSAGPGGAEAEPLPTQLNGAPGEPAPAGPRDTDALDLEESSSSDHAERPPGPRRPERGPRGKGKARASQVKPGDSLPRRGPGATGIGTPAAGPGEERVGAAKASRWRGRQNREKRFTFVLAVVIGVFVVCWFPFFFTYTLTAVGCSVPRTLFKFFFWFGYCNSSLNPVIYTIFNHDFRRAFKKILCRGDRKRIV

[19] = Displacement of [3H]LY278584 from 5HT2 receptor in rat frontal cortex; assay type: tissue-based
[20] = Drug level in rat blood at 1 mg/kg, ip after 1 hr; assay type: ADME, organism-based; set-up: dose 1 mg/kg, route intraperitoneal; conditions: read-out: Drug uptake
[21] = Ratio of drug level in brain to plasma at 1 mg/kg, ip after 5 hrs; assay type: ADME, organism-based; set-up: dose 1 mg/kg, route intraperitoneal; conditions: rat
Histamine H2 receptor = Histamine H2 receptor (Homo sapiens, UniProt P25021); assay: Displacement of [3H]tiotidine from human histamine H2 receptor; conditions: read-out: pKi (converted)
Chain of Histamine H2 receptor (P25021 whole entry): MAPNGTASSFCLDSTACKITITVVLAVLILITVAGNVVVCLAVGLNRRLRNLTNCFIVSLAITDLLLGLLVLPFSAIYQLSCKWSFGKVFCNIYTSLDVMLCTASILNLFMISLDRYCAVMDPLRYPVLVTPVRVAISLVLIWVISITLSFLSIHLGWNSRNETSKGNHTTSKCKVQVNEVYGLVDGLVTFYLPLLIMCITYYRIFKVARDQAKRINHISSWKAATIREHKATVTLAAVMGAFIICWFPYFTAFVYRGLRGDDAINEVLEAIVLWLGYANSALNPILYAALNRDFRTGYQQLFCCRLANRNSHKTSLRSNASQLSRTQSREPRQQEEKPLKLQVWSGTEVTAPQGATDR

[22] = Plasma concentration in rat at 1 mg/kg, ip after 5 hrs; assay type: ADME, organism-based; set-up: dose 1 mg/kg, route intraperitoneal
Rattus norvegicus = assay: Toxicity in rat assessed as CNS side effects at 1.3 to 13 mg/kg, ip; assay type: organism-based; set-up: dose 1.3-13 mg/kg, route intraperitoneal; conditions: in vivo
[23] = Drug level in rat blood at 1 mg/kg, ip after 24 hrs; assay type: ADME, organism-based; set-up: dose 1 mg/kg, route intraperitoneal; conditions: read-out: Drug uptake
Histamine H3 receptor [24] = molecular target: T1, Histamine H3 receptor; conditions: C6
[25] = molecular target: T4, Alpha-2C adrenergic receptor (Homo sapiens, UniProt P18825); assay: Displacement of [3H]rauwolscine from human adrenergic alpha 2C4 receptor expressed in mouse LTK- cells; assay type: cell-based
T4 sequence (P18825 whole entry): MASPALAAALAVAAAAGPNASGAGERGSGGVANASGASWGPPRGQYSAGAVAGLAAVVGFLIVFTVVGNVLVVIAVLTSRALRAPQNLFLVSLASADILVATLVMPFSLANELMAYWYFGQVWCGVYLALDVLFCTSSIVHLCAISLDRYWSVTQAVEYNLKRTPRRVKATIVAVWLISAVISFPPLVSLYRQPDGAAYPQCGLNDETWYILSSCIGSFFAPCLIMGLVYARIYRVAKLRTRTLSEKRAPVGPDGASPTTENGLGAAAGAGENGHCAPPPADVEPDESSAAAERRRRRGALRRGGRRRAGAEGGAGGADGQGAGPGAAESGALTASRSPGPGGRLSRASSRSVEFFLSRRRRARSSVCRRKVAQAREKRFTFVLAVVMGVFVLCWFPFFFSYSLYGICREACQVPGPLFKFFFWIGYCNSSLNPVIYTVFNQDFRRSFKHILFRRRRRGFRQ

[26] = Displacement of [3H]LY278584 from 5HT3 receptor in rat frontal cortex; assay type: tissue-based
Histamine H3 receptor [27] = molecular target: T1, Histamine H3 receptor; assay: Displacement of [3H]NAMH from histamine H3 receptor in human cortex
[28] = Oral bioavailability in rat; assay type: ADME, organism-based; conditions: in vivo
[29] = molecular target: Histamine H3 receptor (Cavia porcellus) (UniProt Q9JI35); conditions: Ileum
Chain of Histamine H3 receptor (Cavia porcellus) (Q9JI35 whole entry): as the sequence (Q9JI35 whole entry) above

[30] = molecular target: Histamine H3 receptor (Rattus norvegicus) (UniProt Q9QYN8); assay: Antagonist activity at rat full length histamine H3 receptor expressed in rat C6 cells assessed as inhibition of [35S]gammaGTP binding relative to control; assay type: cell-based
[31] = molecular target: Histamine H3 receptor (Rattus norvegicus) (UniProt Q9QYN8); assay: Antagonist activity at rat full length histamine H3 receptor assessed as inhibition of (R)-alpha-methylhistamine-induced intracellular calcium release by FLIPR; assay type: functional, cell-based

T1 sequence (Q9Y5N1 whole entry): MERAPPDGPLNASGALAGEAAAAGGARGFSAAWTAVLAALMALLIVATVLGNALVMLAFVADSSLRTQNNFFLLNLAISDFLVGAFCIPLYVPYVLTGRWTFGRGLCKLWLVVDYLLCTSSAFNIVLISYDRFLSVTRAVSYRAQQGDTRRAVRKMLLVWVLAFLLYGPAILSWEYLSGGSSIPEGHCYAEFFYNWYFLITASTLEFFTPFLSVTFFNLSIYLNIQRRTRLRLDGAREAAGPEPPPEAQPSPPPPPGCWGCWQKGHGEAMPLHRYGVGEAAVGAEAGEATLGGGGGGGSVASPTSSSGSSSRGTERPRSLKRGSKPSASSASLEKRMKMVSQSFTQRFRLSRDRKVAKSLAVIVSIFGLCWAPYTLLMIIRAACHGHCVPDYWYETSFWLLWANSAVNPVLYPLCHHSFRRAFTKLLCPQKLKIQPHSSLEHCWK

## C[C@H]1[C@H]2CC[C@H]3[C@@H]4CC=C5C[C@@H](N(C)S(=O)(=O)N(C)C)CC[C@]5(C)[C@H]4CC[C@]23CN1C
Histamine H3 receptor [1]
  Ki: 30.9 nM
Histamine H3 receptor [2]; read-out: Ki
  Ki: 240 nM

## COc1ccc(C/C(=N\O)C(=O)NCCc2c[nH]cn2)cc1Br [VERONGAMINE]
Histamine H3 receptor [3]
  IC50: 830 nM

## C[C@H]1[C@H]2CC[C@H]3[C@@H]4CC=C5C[C@@H](N(C)C)CC[C@]5(C)[C@H]4CC[C@]23CN1C [CONESSINE]
Histamine H3 receptor [1]
  Ki: 5.37 nM
[4]
  concentration at 24 h: 37 ng/mL
[5]
  Kp at 24 h: 114
[6]
  concentration at 5 h: 306 ng/mL
[7]
  concentration at 1 h: 6570 ng/g
Histamine H3 receptor [8]
  pKb: 8.08
[9]
  concentration at 1 h: 148 ng/mL
[10]
  concentration at 5 h: 6800 ng/g
Histamine H4 receptor
  Ki: > 10000 nM
Histamine H1 receptor
  Ki: > 10000 nM
[11]
  Kp at 1 h: 46
Histamine H3 receptor [12]; read-out: pKi (converted)
  Ki: 12.3 nM
[13]
  pKb: 6.99
[14]
  concentration at 24 h: 4140 ng/g
[15]
  pKi: 5.72
[16]
  Selectivity ratio: 2
Histamine H3 receptor [17]
  pKb: 7.96
[18]
  Ki: 661 nM
[19]
  pKi: < 5
[20]
  concentration at 1 h: 444 ng/mL
Histamine H3 receptor [2]; read-out: pKi (converted)
  Ki: 24.5 nM
[21]
  Kp at 5 h: 95.4
Histamine H2 receptor
  Ki: > 10000 nM
[22]
  concentration at 5 h: 89 ng/mL
Rattus norvegicus
  Activity: Non-toxic
[23]
  concentration at 24 h: 102 ng/mL
Histamine H3 receptor [3]
  Kb: 282 nM
Histamine H3 receptor [24]
  pKb: 6.14
[25]
  Ki: 10.6 nM
[26]
  pKi: < 5
Histamine H3 receptor [27]
  Ki: 3.47 nM

## CC(=O)N(C)[C@H]1CC[C@@]2(C)C(=CC[C@H]3[C@@H]4CC[C@@H]5[C@H](C)N(C)C[C@@]54CC[C@@H]32)C1
Histamine H3 receptor [1]
  Ki: 110 nM
Histamine H3 receptor [2]; read-out: Ki
  Ki: 257 nM

## C[C@H]1[C@H]2CC[C@H]3[C@@H]4CC=C5C[C@@H](N(C)C(=O)c6ccncc6)CC[C@]5(C)[C@H]4CC[C@]23CN1C
Histamine H3 receptor [1]
  Ki: 16.2 nM
Histamine H3 receptor [2]; read-out: Ki
  Ki: 155 nM

## CC[C@H](C)[C@H](N)C(=O)N(C)[C@H]1CC[C@@]2(C)C(=CC[C@H]3[C@@H]4CC[C@@H]5[C@H](C)N(C)C[C@@]54CC[C@@H]32)C1
Histamine H3 receptor [1]
  Ki: 0.22 nM
Histamine H3 receptor [2]; read-out: Ki
  Ki: 0.49 nM

## C[C@H]1[C@H]2CC[C@H]3[C@@H]4CC=C5C[C@@H](N(C)C(=O)Cc6cccs6)CC[C@]5(C)[C@H]4CC[C@]23CN1C
Histamine H3 receptor [1]
  Ki: 3.31 nM
Histamine H3 receptor [2]; read-out: Ki
  Ki: 11.2 nM
[28]
  bioavailability: 4.5%

## NCCC(=O)NCCc1c[nH]cn1 [CARCININE]
Histamine H3 receptor [12]; read-out: Ki
  Ki: 294 nM

## C[C@H]1[C@H]2CC[C@H]3[C@@H]4CC=C5C[C@@H](N(C)C(=O)c6ccc(C#N)cc6)CC[C@]5(C)[C@H]4CC[C@]23CN1C
Histamine H3 receptor [1]
  Ki: 39.8 nM
Histamine H3 receptor [2]; read-out: Ki
  Ki: 195 nM

## O=C(c1ccc(OCCCc2c[nH]cn2)cc1)C1CC1 [CIPROXIFAN]
[29]
  pKb: 8.12
Histamine H3 receptor [8]
  pKb: 6.84
[30]
  pKb: 8.78
[13]
  pKb: 9.2
[15]
  pKi: 4.78
Histamine H3 receptor [17]
  pKb: 7.07
[19]
  pKi: 4.73
[31]
  pKb: 9.42
Histamine H3 receptor [24]
  pKb: 6.59
[26]
  pKi: 6.52

## C[C@H]1[C@H]2CC[C@H]3[C@@H]4CC=C5C[C@@H](N(C)S(=O)(=O)c6ccc(C#N)cc6)CC[C@]5(C)[C@H]4CC[C@]23CN1C
Histamine H3 receptor [1]
  Ki: 19 nM
Histamine H3 receptor [2]; read-out: Ki
  Ki: 138 nM

## S=C(NC1CCCCC1)N1CCC(c2cnc[nH]2)CC1 [THIOPERAMIDE]
Histamine H3 receptor [8]
  pKb: 6.82
[30]
  pKb: 8.13
[13]
  pKb: 7.61
[15]
  pKi: 4.95
Histamine H3 receptor [17]
  pKb: 7.39
[19]
  pKi: 5.25
Histamine H3 receptor [2]; read-out: pKi (converted)
  Ki: 7.08 nM
[31]
  pKb: 9.11
Histamine H3 receptor [3]
  Kb: 3.63 nM
Histamine H3 receptor [24]
  pKb: 6.1
[26]
  pKi: 5.64

## C[C@H]1[C@H]2CC[C@H]3[C@@H]4CC=C5C[C@@H](N(C)C(=O)OCC(Cl)(Cl)Cl)CC[C@]5(C)[C@H]4CC[C@]23CN1C
Histamine H3 receptor [1]
  Ki: 19.7 nM
Histamine H3 receptor [12]; read-out: Ki
  Ki: 7.91 nM
